Broadly, the IC50 is the point on the concentration scale where inhibition reaches its midpoint.

Each structure is given as a SMILES string.

Sequence of V600E-mutated B-RAF (P15056 whole entry V600E): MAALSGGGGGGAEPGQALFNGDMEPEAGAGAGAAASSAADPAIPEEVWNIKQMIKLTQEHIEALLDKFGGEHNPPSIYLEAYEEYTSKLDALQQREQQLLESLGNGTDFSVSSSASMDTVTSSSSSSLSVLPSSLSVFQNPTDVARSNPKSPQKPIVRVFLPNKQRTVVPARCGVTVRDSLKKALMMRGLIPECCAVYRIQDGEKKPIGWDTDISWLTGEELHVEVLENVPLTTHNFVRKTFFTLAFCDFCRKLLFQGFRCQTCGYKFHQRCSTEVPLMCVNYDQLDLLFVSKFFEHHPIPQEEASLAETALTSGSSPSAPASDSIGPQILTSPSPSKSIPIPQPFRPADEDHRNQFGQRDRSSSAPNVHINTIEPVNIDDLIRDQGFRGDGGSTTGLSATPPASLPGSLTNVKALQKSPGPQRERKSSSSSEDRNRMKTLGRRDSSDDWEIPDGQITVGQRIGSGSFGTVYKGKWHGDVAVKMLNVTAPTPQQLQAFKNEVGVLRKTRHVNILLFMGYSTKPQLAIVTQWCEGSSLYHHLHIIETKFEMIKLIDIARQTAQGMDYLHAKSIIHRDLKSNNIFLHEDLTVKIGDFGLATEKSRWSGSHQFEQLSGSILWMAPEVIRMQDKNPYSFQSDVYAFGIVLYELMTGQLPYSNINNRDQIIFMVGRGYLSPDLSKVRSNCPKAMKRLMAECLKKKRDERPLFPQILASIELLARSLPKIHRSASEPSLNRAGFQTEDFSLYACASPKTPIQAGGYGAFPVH

One assay concerns the target V600E-mutated B-RAF (Homo sapiens, UniProt P15056, V600E). In words: In vitro assay for inhibition of mutant B-RAF kinase (recombinant V600E-mutated B-RAF, MEK (K97R) substrate). It is filed as biochemical. The conditions noted are these: 10 nM recombinant V600E-mutated B-RAF. The procedure: The ability of compounds described herein to inhibit RAF kinase activity were determined from biochemical kinase inhibition assays using recombinant RAF proteins as known in the art.
Solutions of varying concentrations of test compounds or vehicle were added to 10 nM recombinant V600E-mutated B-RAF proteins incubated in the presence of different concentrations of ATP and […] (K97R) as substrate, as previously described (Wilhelm, S. M., et al., Cancer Res., 64: 7099-7109, 2004; Mason, C. S., et al.; EMBO J. 18: 2137-2.148, 1999; Marais, R., et al., J. Biol. Chem., 272: 4378-4383, 1997). At least triplicate determinations for each individual test compound concentration were made and data plotted as mean±standard deviation relative to the control vehicle.
`CCn1cc(-c2cccc(NC(=O)Nc3cccc(S(C)(=O)=O)c3)c2)c(-c2ccncc2)n1` [Example 55, 1-(3-(1-ethyl-3-(pyridin-4-yl)-1H-pyrazol-4-yl)phenyl)-3-(3-(methylsulfonyl)phenyl)urea]: the IC50 is not above 0.1 µM.

For the compound `Cc1nc(-c2ccnc(N)c2)c(-c2cccc(NC(=O)Nc3ccc(C(F)(F)F)cc3)c2F)s1` [Example 24, 1-(3-(4-(2-aminopyridin-4-yl)-2-methylthiazol-5-yl)-2-fluorophenyl)-3-(4-(trifluoromethyl)phenyl)urea], the IC50 lay within 0.1 to 1 µM. Same read-out and setting: with `Cc1nc(-c2ccncc2)c(-c2cccc(NS(=O)(=O)c3c(F)cccc3F)c2)s1` [Example 42, 2,6-difluoro-N-(3-(2-methyl-4-(pyridin-4-yl)thiazol-5-yl)phenyl)benzenesulfonamide] the figure was 0.1 to 1 µM. On the same count and under the same terms, with `Cc1ccc(NC(=O)Nc2ccc(F)c(-c3sc(C)nc3-c3ccncc3)c2)cc1` [Example 8, 1-(4-fluoro-3-(2-methyl-4-(pyridin-4-yl)thiazol-5-yl)phenyl)-3-p-tolylurea] the figure was not above 0.1 µM; with `CCn1cc(-c2cccc(NC(=O)Nc3ccc(S(=O)(=O)CC)cc3)c2)c(-c2ccncc2)n1` [Example 54, 1-(3-(1-ethyl-3-(pyridin-4-yl)-1H-pyrazol-4-yl)phenyl)-3-(4-(ethylsulfonyl)phenyl)urea], not above 0.1 µM. The same measure, in the same setting: with `CCn1cc(-c2cccc(NC(=O)Nc3ccc(S(=O)(=O)NC)cc3)c2)c(-c2ccncc2)n1` [Example 56, 4-(3-(3-(1-ethyl-3-(pyridin-4-yl)-1H-pyrazol-4-yl)phenyl)ureido)-N-methylbenzenesulfonamide] the figure was not above 0.1 µM; with `CCn1cc(-c2ccc(F)c(NC(=O)Nc3ccc(Cl)cc3)c2)c(-c2ccncc2)n1` [Example 48, 1-(4-chlorophenyl)-3-(5-(1-ethyl-3-(pyridin-4-yl)-1H-pyrazol-4-yl)-2-fluorophenyl)urea], not above 0.1 µM; with `Cc1nc(-c2ccncc2)c(-c2ccc(F)c(NC(=O)Nc3ccc(Cl)c(Cl)c3)c2)s1` [Example 11, 1-(3,4-dichlorophenyl)-3-(2-fluoro-5-(2-methyl-4-(pyridin-4-yl)thiazol-5-yl)phenyl)urea], not above 0.1 µM. With `Cc1nc(-c2ccnc(N)c2)c(-c2cccc(NS(=O)(=O)c3c(F)cccc3F)c2)s1` [Example 43, N-(3-(4-(2-aminopyridin-4-yl)-2-methylthiazol-5-yl)phenyl)-2,6-difluorobenzenesulfonamide], the IC50 was in the range of 1 to 10 µM. Consider `Cc1nc(-c2ccncc2)c(-c2cccc(NC(=O)Nc3ccc(Cl)c(C(F)(F)F)c3)c2)s1` [Example 2, 1-(4-chloro-3-(trifluoromethyl)phenyl)-3-(3-(2-methyl-4-(pyridin-4-yl)thiazol-5-yl)phenyl)urea], for which the IC50 is not above 0.1 µM.

On to `COCCNc1cc(-c2nc(C(C)(C)C)sc2-c2cccc(NC(=O)Nc3ccc(C)cc3)c2)ccn1` [Example 28, 1-(3-(2-tert-butyl-4-(2-(2-methoxyethylamino)pyridin-4-yl)thiazol-5-yl)phenyl)-3-p-tolylurea], for which the IC50 lay within 1 to 10 µM. On to `CCn1cc(-c2cccc(NC(=O)Nc3ccc(S(=O)(=O)N4CCCC4)cc3)c2)c(-c2ccncc2)n1` [Example 58, 1-(3-(1-ethyl-3-(pyridin-4-yl)-1H-pyrazol-4-yl)phenyl)-3-(4-(pyrrolidin-1-ylsulfonyl)phenyl)urea], for which the IC50 was more than 10 µM. Still for that read-out and setting: with `COC(=O)N[C@@H](C)CNc1cc(-c2nc(C(C)(C)C)sc2-c2cccc(NC(=O)Nc3ccc(C)cc3)c2)ccn1` [Example 32, (S)-methyl 1-(4-(2-tert-butyl-5-(3-(3-p-tolylureido)phenyl)thiazol-4-yl)pyridin-2-ylamino)propan-2-ylcarbamate] the figure was not above 0.1 µM; with `Cc1ccc(NC(=O)Nc2cccc(-c3sc(C(C)(C)C)nc3-c3ccnc(NCCO)c3)c2)cc1` [Example 29, 1-(3-(2-tert-butyl-4-(2-(2-hydroxyethylamino)pyridin-4-yl)thiazol-5-yl)phenyl)-3-p-tolylurea], not above 0.1 µM. `Cc1ccc(NC(=O)Nc2cccc(-c3sc(C(C)(C)C)nc3-c3ccnc(NCCN4CCCC4)c3)c2)cc1` [Example 31, 1-(3-(2-tert-butyl-4-(2-(2-(pyrrolidin-1-yl)ethylamino)pyridin-4-yl)thiazol-5-yl)phenyl)-3-p-tolylurea]: the IC50 is not above 0.1 µM.

As for `Cc1nc(-c2ccncc2)c(-c2cccc(NC(=O)Nc3ccc(Cl)cc3)c2F)s1` [Example 18, 1-(4-chlorophenyl)-3-(2-fluoro-3-(2-methyl-4-(pyridin-4-yl)thiazol-5-yl)phenyl)urea], the IC50 is 0.1 to 1 µM.

For the compound `Cc1nc(-c2ccncc2)c(-c2cccc(NC(=O)Nc3c(F)cccc3F)c2)s1` [Example 6, 1-(2,6-difluorophenyl)-3-(3-(2-methyl-4-(pyridin-4-yl)thiazol-5-yl)phenyl)urea], the IC50 lay within 0.1 to 1 µM.

For `O=C(Nc1ccc(Cl)cc1)Nc1cc(-c2sc(NCCN3CCOCC3)nc2-c2ccncc2)ccc1F` [Example 36, 1-(4-chlorophenyl)-3-(2-fluoro-5-(2-(2-morpholinoethylamino)-4-(pyridin-4-yl)thiazol-5-yl)phenyl)urea], the IC50 is not above 0.1 µM.

Consider `Cc1nc(-c2ccncc2)c(-c2cccc(NC(=O)Nc3cc(F)ccc3F)c2)s1` [Example 5, 1-(2,5-difluorophenyl)-3-(3-(2-methyl-4-(pyridin-4-yl)thiazol-5-yl)phenyl)urea], for which the IC50 was in the range of 0.1 to 1 µM. `Cc1nc(-c2ccncc2)c(-c2ccc(F)c(NC(=O)Nc3ccc(Cl)cc3F)c2)s1` [Example 12, 1-(4-chloro-2-fluorophenyl)-3-(2-fluoro-5-(2-methyl-4-(pyridin-4-yl)thiazol-5-yl)phenyl)urea]: the IC50 is not above 0.1 µM. On to `CC(C)(C)c1nc(-c2ccncc2)c(-c2cccc(NS(=O)(=O)c3c(F)cccc3F)c2)s1` [Example 44, N-(3-(2-tert-butyl-4-(pyridin-4-yl)thiazol-5-yl)phenyl)-2,6-difluorobenzenesulfonamide], for which the IC50 lay in the range of 0.1 to 1 µM.

For `Nc1nc(-c2ccncc2)c(-c2ccc(F)c(NC(=O)Nc3ccc(Cl)cc3)c2)s1` [Example 40, 1-(5-(2-amino-4-(pyridin-4-yl)thiazol-5-yl)-2-fluorophenyl)-3-(4-chlorophenyl)urea], the IC50 was not above 0.1 µM. Consider `Cc1ccc(NC(=S)Nc2cccc(-c3sc(C)nc3-c3ccncc3)c2)cc1` [Example 19, 1-(3-(2-methyl-4-(pyridin-4-yl)thiazol-5-yl)phenyl)-3-p-tolylthiourea], for which the IC50 was not above 0.1 µM.

On to `Cc1ccc(NC(=O)Nc2cccc(-c3sc(C(C)(C)C)nc3-c3ccnc(NCCN(C)C)c3)c2)cc1` [Example 30, 1-(3-(2-tert-butyl-4-(2-(2-(dimethylamino)ethylamino)pyridin-4-yl)thiazol-5-yl)phenyl)-3-p-tolylurea], for which the IC50 was not above 0.1 µM. Turning to `Cc1ccc(CC(=O)Nc2cccc(-c3sc(C)nc3-c3ccnc(N)c3)c2)cc1` [Example 45, N-[3-(2-Methyl-4-(2-aminopyridin-4-yl)-thiazol-5-yl)-phenyl]-p-tolylacetamide], the IC50 lay in the range of 0.1 to 1 µM. Still for that read-out and setting: for `Cc1nc(-c2ccncc2)c(-c2cccc(NC(=O)Nc3ccc(F)cc3)c2)s1` [Example 4, 1-(4-fluorophenyl)-3-(3-(2-methyl-4-(pyridin-4-yl)thiazol-5-yl)phenyl)urea] the value was 0.1 to 1 µM. On the same count and under the same terms, for `Cc1nc(-c2ccnc(N)c2)c(-c2cccc(NC(=O)Nc3ccc(Cl)cc3)c2F)s1` [Example 23, 1-(3-(4-(2-aminopyridin-4-yl)-2-methylthiazol-5-yl)-2-fluorophenyl)-3-(4-chlorophenyl)urea] the value was 0.1 to 1 µM; for `Nc1nc(-c2ccncc2)c(-c2cccc(NC(=O)Nc3ccc(Cl)cc3)c2F)s1` [Example 39, 1-(3-(2-amino-4-(pyridin-4-yl)thiazol-5-yl)-2-fluorophenyl)-3-(4-chlorophenyl)urea], 1 to 10 µM; for `Cc1ccc(NC(=O)Nc2cccc(-c3sc(C(C)(C)C)nc3-c3ccncc3)c2)cc1` [Example 27, 1-(3-(2-tert-butyl-4-(pyridin-4-yl)thiazol-5-yl)phenyl)-3-p-tolylurea], 0.1 to 1 µM. Turning to `Nc1nc(-c2ccncc2)c(-c2cccc(NC(=O)Nc3ccc(C(F)(F)F)cc3)c2F)s1` [Example 38, 1-(3-(2-amino-4-(pyridin-4-yl)thiazol-5-yl)-2-fluorophenyl)-3-(4-(trifluoromethyl)phenyl)urea], the IC50 lay in the range of 0.1 to 1 µM. Same read-out and setting: with `Cc1ccc(CC(=O)Nc2cccc(-c3sc(C(C)(C)C)nc3-c3ccncc3)c2)cc1` [Example 46, N-(3-(2-tert-butyl-4-(pyridin-4-yl)thiazol-5-yl)phenyl)-2-p-tolylacetamide] the figure was 1 to 10 µM.

Another assay has as its system A375 cells (V600E activated B-RAF). In words: In vitro tumor cell growth inhibition, MTT, 72 hours. The class given is cell-based. To be noted: Homo sapiens, A-375, 72 hours incubation. The procedure: Briefly, growth inhibition of cells containing V600E activated B-RAF (A375, Colo205) versus cell lines with wild-type B-RAF (A431) were measured under anchorage-dependent conditions using MTT (3-(4,5-dimethylthiazol-2-yl)-2,5-diphenyltetrazolium bromide), following 72 hours incubation with either compound or vehicle, as previously described (Haass, N. K., et al., Clinical Cancer Res., 14: 230-239, 2008): Cell lines are obtained from the American Type Tissue Culture Collection (Maryland, USA) and cultured in media containing heat-inactivated 10% fetal bovine serum. Cell cultures were also maintained in 10 U/mL, penicillin, 100 μg/mL streptomycin and 2 mM glutamine. At least triplicate determinations for each individual test compound concentration were made and data plotted as mean±standard deviation relative to the control vehicle.
`CCn1cc(-c2cccc(NC(=O)Nc3cccc(S(C)(=O)=O)c3)c2)c(-c2ccncc2)n1` [Example 55, 1-(3-(1-ethyl-3-(pyridin-4-yl)-1H-pyrazol-4-yl)phenyl)-3-(3-(methylsulfonyl)phenyl)urea] registered an IC50 of more than 10 µM. Consider `Cc1nc(-c2ccnc(N)c2)c(-c2cccc(NC(=O)Nc3ccc(C(F)(F)F)cc3)c2F)s1` [Example 24, 1-(3-(4-(2-aminopyridin-4-yl)-2-methylthiazol-5-yl)-2-fluorophenyl)-3-(4-(trifluoromethyl)phenyl)urea], for which the IC50 is 0.1 to 1 µM. Take `CCn1cc(-c2cccc(NC(=O)Nc3ccc(S(=O)(=O)CC)cc3)c2)c(-c2ccncc2)n1` [Example 54, 1-(3-(1-ethyl-3-(pyridin-4-yl)-1H-pyrazol-4-yl)phenyl)-3-(4-(ethylsulfonyl)phenyl)urea]: the IC50 lay within 1 to 10 µM. The compound `CCn1cc(-c2cccc(NC(=O)Nc3ccc(S(=O)(=O)NC)cc3)c2)c(-c2ccncc2)n1` [Example 56, 4-(3-(3-(1-ethyl-3-(pyridin-4-yl)-1H-pyrazol-4-yl)phenyl)ureido)-N-methylbenzenesulfonamide] came in with an IC50 of more than 10 µM. Compound `CCn1cc(-c2ccc(F)c(NC(=O)Nc3ccc(Cl)cc3)c2)c(-c2ccncc2)n1` [Example 48, 1-(4-chlorophenyl)-3-(5-(1-ethyl-3-(pyridin-4-yl)-1H-pyrazol-4-yl)-2-fluorophenyl)urea] returned an IC50 of 1 to 10 µM.

The values are drawn from patent US20140221374A1, “RAF KINASE INHIBITORS” (Ruga Corporation, priority 2011, published 2014).
